Experiment in all cases: UDP-glucuronosyltransferase Activity Assay
Assay [1] has as its target T1, UDP-glucuronosyltransferase 1-6 (Homo sapiens, UniProt P19224).
T1 sequence (P19224 whole entry): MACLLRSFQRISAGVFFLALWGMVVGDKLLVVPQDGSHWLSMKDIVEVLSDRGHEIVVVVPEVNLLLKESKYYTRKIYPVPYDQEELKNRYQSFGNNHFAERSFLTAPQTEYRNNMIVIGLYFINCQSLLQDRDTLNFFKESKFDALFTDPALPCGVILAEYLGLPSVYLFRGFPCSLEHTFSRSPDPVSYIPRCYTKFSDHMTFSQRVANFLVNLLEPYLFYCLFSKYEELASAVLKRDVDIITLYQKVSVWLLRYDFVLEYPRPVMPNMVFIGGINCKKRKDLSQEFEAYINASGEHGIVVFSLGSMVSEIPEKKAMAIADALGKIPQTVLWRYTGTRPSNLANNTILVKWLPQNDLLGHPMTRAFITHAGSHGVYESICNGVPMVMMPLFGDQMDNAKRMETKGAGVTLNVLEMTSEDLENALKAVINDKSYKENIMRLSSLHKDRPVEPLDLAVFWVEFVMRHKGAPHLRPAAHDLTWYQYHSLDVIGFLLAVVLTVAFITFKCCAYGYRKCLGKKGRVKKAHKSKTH

The target of assay [2] is T2, UDP-glucuronosyltransferase 1A1 (Homo sapiens, UniProt P22309).
T2 sequence (P22309 whole entry): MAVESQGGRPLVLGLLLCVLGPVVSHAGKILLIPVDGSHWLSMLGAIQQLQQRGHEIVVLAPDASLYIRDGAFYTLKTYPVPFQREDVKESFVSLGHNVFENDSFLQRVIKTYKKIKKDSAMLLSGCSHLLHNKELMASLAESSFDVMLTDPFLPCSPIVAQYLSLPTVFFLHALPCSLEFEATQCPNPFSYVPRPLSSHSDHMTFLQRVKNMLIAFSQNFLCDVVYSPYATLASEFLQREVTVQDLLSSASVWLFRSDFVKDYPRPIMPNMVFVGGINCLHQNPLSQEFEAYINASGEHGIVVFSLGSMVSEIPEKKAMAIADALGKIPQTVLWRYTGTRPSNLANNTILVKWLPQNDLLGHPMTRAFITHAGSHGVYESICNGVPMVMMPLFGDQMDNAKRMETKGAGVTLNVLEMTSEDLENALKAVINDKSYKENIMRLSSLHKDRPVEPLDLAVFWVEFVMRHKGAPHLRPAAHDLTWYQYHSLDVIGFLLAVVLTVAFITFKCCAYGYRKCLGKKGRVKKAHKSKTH

The target of assay [3] is T3, UDP-glucuronosyltransferase 1A4 (Homo sapiens, UniProt P22310).
T3 sequence (P22310 whole entry): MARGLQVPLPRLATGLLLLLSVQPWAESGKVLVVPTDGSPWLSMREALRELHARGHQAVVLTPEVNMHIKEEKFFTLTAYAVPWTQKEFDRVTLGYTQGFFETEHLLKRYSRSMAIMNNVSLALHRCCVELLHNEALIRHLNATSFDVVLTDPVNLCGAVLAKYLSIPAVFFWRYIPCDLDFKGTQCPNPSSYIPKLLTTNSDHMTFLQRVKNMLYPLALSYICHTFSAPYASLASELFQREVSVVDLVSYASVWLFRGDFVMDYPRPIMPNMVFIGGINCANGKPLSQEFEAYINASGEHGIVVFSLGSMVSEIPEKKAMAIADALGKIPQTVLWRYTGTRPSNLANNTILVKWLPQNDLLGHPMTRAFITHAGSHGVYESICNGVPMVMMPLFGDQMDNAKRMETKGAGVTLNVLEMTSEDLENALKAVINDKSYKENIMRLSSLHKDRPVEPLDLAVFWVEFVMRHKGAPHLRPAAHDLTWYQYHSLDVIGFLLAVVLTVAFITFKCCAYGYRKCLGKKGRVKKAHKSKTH

Assay [4] deals with T4, UDP-glucuronosyltransferase 2B10 (Homo sapiens, UniProt P36537).
T4 sequence (P36537 whole entry): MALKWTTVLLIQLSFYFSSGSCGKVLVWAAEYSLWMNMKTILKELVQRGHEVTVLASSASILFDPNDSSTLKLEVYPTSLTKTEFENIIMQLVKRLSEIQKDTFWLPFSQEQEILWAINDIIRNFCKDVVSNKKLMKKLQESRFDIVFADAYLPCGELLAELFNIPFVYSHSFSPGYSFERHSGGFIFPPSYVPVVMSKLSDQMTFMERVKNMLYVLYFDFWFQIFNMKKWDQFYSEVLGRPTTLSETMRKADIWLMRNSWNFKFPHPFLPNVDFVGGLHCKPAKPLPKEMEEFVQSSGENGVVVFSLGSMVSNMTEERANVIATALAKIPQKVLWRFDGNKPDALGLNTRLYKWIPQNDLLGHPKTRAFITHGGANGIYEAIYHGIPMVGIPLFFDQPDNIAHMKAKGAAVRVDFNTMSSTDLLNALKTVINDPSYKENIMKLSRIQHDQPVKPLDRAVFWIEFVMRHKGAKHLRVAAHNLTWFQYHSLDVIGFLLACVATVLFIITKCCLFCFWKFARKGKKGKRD

In assay [5] the target is T5, UDP-glucuronosyltransferase 2B7 (Homo sapiens, UniProt P16662).
T5 sequence (P16662 whole entry): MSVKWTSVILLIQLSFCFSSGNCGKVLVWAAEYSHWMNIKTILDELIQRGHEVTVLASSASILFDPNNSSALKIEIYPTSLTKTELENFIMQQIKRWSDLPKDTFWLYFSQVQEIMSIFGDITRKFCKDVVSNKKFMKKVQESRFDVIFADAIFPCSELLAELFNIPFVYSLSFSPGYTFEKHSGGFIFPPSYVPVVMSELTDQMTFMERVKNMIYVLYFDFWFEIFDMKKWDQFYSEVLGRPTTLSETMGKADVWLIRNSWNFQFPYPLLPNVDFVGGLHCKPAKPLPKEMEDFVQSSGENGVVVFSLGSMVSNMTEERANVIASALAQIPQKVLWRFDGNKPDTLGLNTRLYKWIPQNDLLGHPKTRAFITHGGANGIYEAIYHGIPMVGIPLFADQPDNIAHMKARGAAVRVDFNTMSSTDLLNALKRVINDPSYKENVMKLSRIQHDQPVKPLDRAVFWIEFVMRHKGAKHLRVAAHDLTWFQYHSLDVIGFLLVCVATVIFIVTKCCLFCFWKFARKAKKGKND

pIC50: −log10 of the molar value. Structures can show the parent of a compound that is named as a salt. Bounds are passed on as bounds.

Take `CC(=O)O[C@H]1C(=O)[C@@]2(C)[C@H]([C@H](OC(=O)c3ccccc3)[C@]3(O)C[C@H](OC(=O)[C@H](O)[C@@H](NC(=O)c4ccccc4)c4ccccc4)C(C)=C1C3(C)C)[C@]1(OC(C)=O)CO[C@@H]1C[C@@H]2O`: the pIC50 in assay [1] is 4.13; in assay [2], 4.70; in assay [3] it was 5.31; in assay [4] it was less than 3.52; in assay [5], less than 3.52.
Turning to `O=c1cc(-c2ccccc2)oc2c1ccc1ccccc12`, the pIC50 was 4.17 in assay [1]; 4.42 in assay [2]; 4.64 in assay [3]; less than 3.52 in assay [4]; 3.83 in assay [5].
Taken in the same sequence, the figures for `Nc1ccc(S(=O)(=O)Nc2ccnn2-c2ccccc2)cc1` were less than 3.52, less than 3.52, less than 3.52, less than 3.52 and less than 3.52.
Turning to `CCCCNC(=O)NS(=O)(=O)c1ccc(C)cc1` [1-Butyl-3-(p-methylphenylsulfonyl)urea], the pIC50 was 3.55 in assay [1]; less than 3.52 in assay [2]; less than 3.52 in assay [3]; less than 3.52 in assay [4]; less than 3.52 in assay [5].
As for `O=c1ccc2ccccc2o1` [2H-chromen-2-one], the pIC50 in assay [1], in assay [2], in assay [3], in assay [4] and in assay [5] was less than 3.52 throughout.
On to `Cc1ncc2n1-c1ccc(Cl)cc1C(c1ccccc1F)=NC2` [12-chloro-9-(2-fluorophenyl)-3-methyl-2,4,8-triazatricyclo[8.4.0.0^{2,6}]tetradeca-1(10),3,5,8,11,13-hexaene], for which the pIC50 in assay [1] was 4.64; in assay [2], 4.59; in assay [4], 3.97; in assay [5], 3.83.
With `CC[C@@]1(c2ccccc2)NC(=O)N(C)C1=O` [(5S)-5-Ethyl-3-methyl-5-phenyl-2,4-imidazolidinedione], the pIC50 in assay [1], in assay [2], in assay [3], in assay [4] and in assay [5] was less than 3.52 in each case.
Consider `C=C[C@H]1C[N@@]2CC[C@H]1C[C@@H]2[C@@H](O)c1ccnc2ccc(OC)cc12` [(6-Methoxy-quinolin-4-yl)-(5-vinyl-1-aza-bicyclo[2.2.2]oct-2-yl)-methanol], for which the pIC50 in assay [1] was less than 3.52; in assay [2], less than 3.52; in assay [3], 3.78; in assay [4] it was less than 3.52; in assay [5], less than 3.52.
For the molecule `CCOc1ccc(NC(C)=O)cc1` [ACETPHENETIDIN], the pIC50 in assay [1], in assay [2], in assay [3], in assay [4] and in assay [5] was less than 3.52 throughout.
On to `CC(NC(C)(C)C)C(=O)c1cccc(Cl)c1` (stereo not given) [BUPROPION HYDROCHLORIDE], for which the pIC50 in assay [1] is less than 3.52; in assay [2] it was less than 3.52; in assay [3] it was 3.82; in assay [4], 4.06; in assay [5], less than 3.52.
On to `Cc1ncsc1CCCl` [Chlormethiazole], for which the pIC50 in assay [1], in assay [2], in assay [3], in assay [4] and in assay [5] was less than 3.52 in each case.
As to `COc1ccc2c(c1)[C@@]13CCCC[C@@H]1[C@@H](C2)N(C)CC3` [Dextromethorphan], the pIC50 in assay [1] was less than 3.52; in assay [2], less than 3.52; in assay [3], 4.05; in assay [4], 4.21; in assay [5], less than 3.52.
Consider `COc1ccc2[nH]c([S+]([O-])Cc3ncc(C)c(OC)c3C)nc2c1` (stereo not given) [H-168/68], for which the pIC50 in assay [1] is 3.73; in assay [2] it was 4.25; in assay [3], less than 3.52; in assay [4] it was less than 3.52; in assay [5], less than 3.52.
As for `CC(=O)N1CCN(c2ccc(OC[C@@H]3CO[C@@](Cn4ccnc4)(c4ccc(Cl)cc4Cl)O3)cc2)CC1` [Nizoral], the pIC50 in assay [1] is 4.72; in assay [2] it was 5.39; in assay [3], 4.24; in assay [4] it was 4.66; in assay [5], 4.22.
On the same counts, the results for `CO[C@H]1C[C@H](O[C@H]2[C@H](C)[C@@H](O[C@@H]3O[C@H](C)C[C@H](N(C)C)[C@H]3O)[C@@H](C)C[C@@]3(CO3)C(=O)[C@H](C)[C@@H](O)[C@@H](C)[C@@H](C)OC(=O)[C@@H]2C)O[C@@H](C)[C@@H]1O` [Oleandomycin] are less than 3.52, 4.36, 4.23, less than 3.52 and 3.57.
As to `C[C@]12CC[C@H]3[C@@H](CCC4=CC(=O)CC[C@@]43C)[C@@H]1CC[C@@H]2O` [Testosterone, 1], the pIC50 is less than 3.52 in assay [1], 4.37 in assay [2], less than 3.52 in assay [4] and 3.78 in assay [5].
For the molecule `Cc1nc2c([nH]1)c(=O)n(C)c(=O)n2Cc1ccco1` [furafylline], the pIC50 in assay [1], in assay [2], in assay [3], in assay [4] and in assay [5] was less than 3.52 each time.
For the molecule `O=C(O)Cc1ccccc1Nc1c(Cl)cccc1Cl` [{2-[(2,6-dichlorophenyl)amino]phenyl}acetic acid], the values for the pIC50 in assay [2] and in assay [3] were 3.81 and 3.72, respectively.

The record behind these values is BindingDB's records for doi:10.3109/14756366.2010.518965 (Guangzhou Institutes of Biomedicine and Health, Chinese …, 2011).
